Reference: patent publication US20150051246A1 (priority 2013, published 2015)

Tested on: male Wistar rats
Experiment: Object recognition task (ORT), scopolamine induced memory deficit
Format: in vivo
Procedure: Memory acquisition processes are investigated using the object recognition test (ORT).
Twenty four 3-4 month old male Wistar rats (Charles River, Sulzfeld, Germany) were used for the study. All animals were housed individually in standard green line Tecniplast IVC cages on stardust bedding. The animals were housed on a reversed 12/12 h light/dark cycle (lights on from 07:00 pm to 07:00 am) and had free access to food and water. The rats were housed and tested in the same room. A radio, playing softly, provided background noise in the room. All testing was performed between 09:00 am and 06:00 pm.
Drugs were prepared daily, except as indicated otherwise. Roflumilast (Takeda, Konstanz, Germany, MW 403.21) was dissolved in 98% methylcellulose solution (0.5% methylcellulose) and 2% Tween 80. Roflumilast in doses of 0 (vehicle), 0.0001, 0.0003, 0.001, 0.003, 0.01 and 0.03 mg/kg was administered intraperitonally (ip, injection volume 1 ml/kg). […] All compounds were administered 30 min before T1.
The testing order of conditions was determined randomly. The experimenter was blind of testing protocol. A within design was used and all treatment conditions were balanced over rats. The ORT was performed as described elsewhere (Ennaceur and Delaceur, 1988, Behav Brain Res, Vol 31, pp 47-59; Akkerman et al; 2012, Behav Brain Res, Vol 232, pp 335-347). The apparatus consisted of a circular arena, 83 cm in diameter. The back half of the 40 cm high wall was made of grey PVC and the front was made of transparent PVC. Fluorescent red tubes and a light bulb provided a constant illumination of about 20 lux on the floor of the apparatus. The light intensity was equal in the different parts of the apparatus.
Two objects were placed in symmetrical positions at the mid-line between the gray and transparent halves of the arena, about ten centimeters away from wall. Four different sets of objects were available: 1) a standard 1 L brown transparent glass bottle (diameter 10 cm, height 22 cm) filled with water, 2) a metal cube (10.0×5.0×7.5 cm) with two holes (diameter 1.9 cm), 3) a cone consisting of a gray PVC base (maximal diameter 18 cm) with a collar on top made of brass (total height 16 cm), and 4) an aluminum cube with a tapering top (13.0×8.0×8.0 cm). Objects were presented to the animals in a balanced manner to avoid object or place biases. Rats were unable to displace the objects.
A test session comprised two trials, each with durations of 3 min. During the learning trial (T1) the apparatus contains two identical objects (object a1 and a2). Rats were always introduced into the apparatus with their nose towards the transparent wall segment (i.e. facing outwards to the front of the arena). Subsequently, rats were put back in its home cage for a 1 h interval. After the retention interval, rats were put back into the arena for the […] (T2). In T2, the two objects from T1 were replaced by one identical copy (a3) and a different novel object (b). The times spent in exploring each object during T1 and T2 were recorded manually on a personal computer.
Exploration was defined in the following manner: directing the nose to the object at a distance of no more than 2 cm and/or touching the object with the nose. Sitting on the object was not considered as exploratory behavior. In order to avoid the presence of olfactory cues, the objects were thoroughly cleaned with a 70% ethanol solution before each trial.
Prior to compound testing, the animals were handled for 5 min on 2 consecutive days and allowed to explore the ORT arena, also for 5 min. Subsequently, the animals were accustomed to the complete ORT testing procedure without receiving any injection.
The readout parameters of the object recognition task are the times that rats spent on exploring each object during T1 and T2. The exploration time (in seconds) of each object during T1 are presented as “a1” and “a2”.

O=C(Nc1c(Cl)cncc1Cl)c1ccc(OC(F)F)c(OCC2CC2)c1 [roflumilast, N-(3,5-dichloropyridin-4-yl)-3-cyclopropylmethoxy-4-difluoromethoxybenzamide]
effect on memory performance (in words) (0.0001 mg/kg ip, scopolamine deficit): no effect on memory performance | effect on memory performance (in words) (0.0003 mg/kg and 0.001 mg/kg, scopolamine deficit): intermediate memory improvement | effect on memory function (in words) (doses of 0.003 mg/kg and higher, scopolamine deficit): fully restore memory function | d2 (rat, in vivo): 0.34 | d2 (roflumilast 0.0001 mg/kg ip + scopolamine 0.1 mg/kg, 1 h retention): 0.05 | d2 (roflumilast 0.0003 mg/kg ip + scopolamine 0.1 mg/kg, 1 h retention): 0.16 | d2 (roflumilast 0.001 mg/kg ip + scopolamine 0.1 mg/kg, 1 h retention): 0.27 | d2 (roflumilast 0.003 mg/kg ip + scopolamine 0.1 mg/kg, 1 h retention): 0.43 | d2 (roflumilast 0.03 mg/kg ip + scopolamine 0.1 mg/kg, 1 h retention): 0.30 | d2 (scopolamine 0.1 mg/kg + roflumilast 0.0001 mg/kg ip, rof + dpz study): 0.04 | effect on memory function (in words) (single ip dose 0.003 mg/kg, scopolamine deficit): fully restore spatial memory function | effect on memory function (in words) (single ip doses 0.01, 0.03, 0.001 and 0.0003 mg/kg): increasingly less efficacy
